PubChem BioAssay (NCI)
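GI50 marks 50% less growth. At the TGI there is no net growth.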

Tests used:
Experiment in all cases: growth of human tumour cells (NCI), 384-well format
NCI-H460 NSCLC = test system: NCI-H460 NSCLC
UO-31 renal = test system: UO-31 renal
NCI-H322M lung = test system: NCI-H322M lung
TK-10 renal = test system: TK-10 renal
MDA-MB-231 breast = test system: MDA-MB-231 breast
T-47D breast = test system: T-47D breast
KM12 colon = test system: KM12 colon
SF-268 CNS = test system: SF-268 CNS
786-0 renal = test system: 786-0 renal
SNB-19 CNS = test system: SNB-19 CNS
RPMI-8226 leukemia = test system: RPMI-8226 leukemia
SW-620 colon = test system: SW-620 colon
K-562 leukemia = test system: K-562 leukemia
SK-OV-3 ovarian = test system: SK-OV-3 ovarian
CCRF-CEM leukemia = test system: CCRF-CEM leukemia
HL-60(TB) leukemia = test system: HL-60(TB) leukemia
A549 NSCLC = test system: A549 NSCLC
HT29 colon = test system: HT29 colon
COLO 205 colon = test system: COLO 205 colon
HCC-2998 colon = test system: HCC-2998 colon
OVCAR-4 ovarian = test system: OVCAR-4 ovarian
EKVX NSCLC = test system: EKVX NSCLC
MOLT-4 leukemia = test system: MOLT-4 leukemia
RXF 393 renal = test system: RXF 393 renal
MALME-3M melanoma = test system: MALME-3M melanoma
MDA-MB-468 breast = test system: MDA-MB-468 breast
UACC-257 melanoma = test system: UACC-257 melanoma
SR leukemia = test system: SR leukemia
CAKI-1 renal = test system: CAKI-1 renal
A498 renal = test system: A498 renal
SF-539 CNS = test system: SF-539 CNS
NCI/ADR-RES ovarian = test system: NCI/ADR-RES ovarian
OVCAR-5 ovarian = test system: OVCAR-5 ovarian
M14 melanoma = test system: M14 melanoma
MCF7 breast = test system: MCF7 breast
HS 578T breast = test system: HS 578T breast
SF-295 CNS = test system: SF-295 CNS
OVCAR-3 ovarian = test system: OVCAR-3 ovarian
UACC-62 melanoma = test system: UACC-62 melanoma
NCI-H23 lung = test system: NCI-H23 lung
LOX IMVI melanoma = test system: LOX IMVI melanoma
HOP-62 NSCLC = test system: HOP-62 NSCLC
SK-MEL-5 melanoma = test system: SK-MEL-5 melanoma
NCI-H226 lung = test system: NCI-H226 lung
ACHN renal = test system: ACHN renal
NCI-H522 lung = test system: NCI-H522 lung
MDA-MB-435 melanoma = test system: MDA-MB-435 melanoma
BT-549 breast = test system: BT-549 breast
SK-MEL-28 melanoma = test system: SK-MEL-28 melanoma
OVCAR-8 ovarian = test system: OVCAR-8 ovarian
DU-145 prostate = test system: DU-145 prostate
HCT-15 colon = test system: HCT-15 colon
SN12C renal = test system: SN12C renal
PC-3 prostate = test system: PC-3 prostate
HOP-92 NSCLC = test system: HOP-92 NSCLC
IGROV1 ovarian = test system: IGROV1 ovarian
SNB-75 CNS = test system: SNB-75 CNS

CCN(CC)CCCC(C)Nc1c2ccc(Cl)cc2nc2ccc(OC)cc12 (centres undefined)
GI50 (NCI-H460 NSCLC): 1.1 µM | TGI (NCI-H460 NSCLC): 2.31 µM | GI50 (UO-31 renal): 1.85 µM | TGI (UO-31 renal): 3.73 µM | GI50 (NCI-H322M lung): 1.29 µM | TGI (NCI-H322M lung): 2.63 µM | GI50 (TK-10 renal): 1.95 µM | TGI (TK-10 renal): 3.69 µM | GI50 (MDA-MB-231 breast): 1.18 µM | TGI (MDA-MB-231 breast): 2.56 µM | GI50 (T-47D breast): 1.64 µM | TGI (T-47D breast): 3.07 µM | GI50 (KM12 colon): 1.37 µM | TGI (KM12 colon): 3.13 µM | GI50 (SF-268 CNS): 1.64 µM | TGI (SF-268 CNS): 3.06 µM | GI50 ([…]-0 renal): 1.18 µM | TGI (786-0 renal): 2.44 µM | GI50 (SNB-19 CNS): 1.94 µM | TGI (SNB-19 CNS): 4.03 µM | GI50 (RPMI-8226 leukemia): 1.49 µM | TGI (RPMI-8226 leukemia): 2.81 µM | GI50 (SW-620 colon): 1.39 µM | TGI (SW-620 colon): 2.94 µM | GI50 (K-562 leukemia): 1.08 µM | TGI (K-562 leukemia): 2.29 µM | GI50 (SK-OV-3 ovarian): 1.2 µM | TGI (SK-OV-3 ovarian): 2.7 µM | GI50 (CCRF-CEM leukemia): 0.609 µM | TGI (CCRF-CEM leukemia): 1.66 µM | GI50 (HL-60(TB) leukemia): 1.64 µM | TGI (HL-60(TB) leukemia): 3 µM | GI50 (A549 NSCLC): 1.51 µM | TGI (A549 NSCLC): 2.91 µM | GI50 (HT29 colon): 1.33 µM | TGI (HT29 colon): 2.63 µM | GI50 (COLO 205 colon): 1.31 µM | TGI (COLO 205 colon): 2.6 µM | GI50 (HCC-2998 colon): 0.985 µM | TGI (HCC-2998 colon): 2.15 µM | GI50 (OVCAR-4 ovarian): 1.55 µM | TGI (OVCAR-4 ovarian): 2.92 µM | GI50 (EKVX NSCLC): 1.33 µM | TGI (EKVX NSCLC): 2.82 µM | GI50 (MOLT-4 leukemia): 0.212 µM | TGI (MOLT-4 leukemia): 0.357 µM | GI50 (RXF 393 renal): 0.668 µM | TGI (RXF 393 renal): 1.98 µM | GI50 (MALME-3M melanoma): 1.6 µM | TGI (MALME-3M melanoma): 2.95 µM | GI50 (MDA-MB-468 breast): 0.322 µM | TGI (MDA-MB-468 breast): 1.23 µM | GI50 (UACC-257 melanoma): 1.89 µM | TGI (UACC-257 melanoma): 3.3 µM | GI50 (SR leukemia): 0.401 µM | TGI (SR leukemia): 1.32 µM | GI50 (CAKI-1 renal): 1.37 µM | TGI (CAKI-1 renal): 2.74 µM | GI50 (A498 renal): 0.88 µM | TGI (A498 renal): 2.11 µM | GI50 (SF-539 CNS): 1.12 µM | TGI (SF-539 CNS): 2.33 µM | GI50 (NCI/ADR-RES ovarian): 1.55 µM | TGI (NCI/ADR-RES ovarian): 2.94 µM | GI50 (OVCAR-5 ovarian): 1.92 µM | TGI (OVCAR-5 ovarian): 4.16 µM | GI50 (M14 melanoma): 1.79 µM | TGI (M14 melanoma): 3.18 µM | GI50 (MCF7 breast): 1.41 µM | TGI (MCF7 breast): 3.2 µM | GI50 (HS 578T breast): 1.71 µM | TGI (HS 578T breast): 3.08 µM | GI50 (SF-295 CNS): 1.74 µM | TGI (SF-295 CNS): 3.14 µM | GI50 (OVCAR-3 ovarian): 1.76 µM | TGI (OVCAR-3 ovarian): 3.36 µM | GI50 (UACC-62 melanoma): 1.69 µM | TGI (UACC-62 melanoma): 3.06 µM | GI50 (NCI-H23 lung): 1.6 µM | TGI (NCI-H23 lung): 2.96 µM | GI50 (LOX IMVI melanoma): 1.39 µM | TGI (LOX IMVI melanoma): 2.7 µM | GI50 (HOP-62 NSCLC): 1.1 µM | TGI (HOP-62 NSCLC): 2.44 µM | GI50 (SK-MEL-5 melanoma): 1.96 µM | TGI (SK-MEL-5 melanoma): 3.38 µM | GI50 (NCI-H226 lung): 1.33 µM | TGI (NCI-H226 lung): 2.8 µM | GI50 (ACHN renal): 1.04 µM | TGI (ACHN renal): 2.44 µM | GI50 (NCI-H522 lung): 1.47 µM | TGI (NCI-H522 lung): 2.8 µM | GI50 (MDA-MB-435 melanoma): 1.75 µM | TGI (MDA-MB-435 melanoma): 3.14 µM | GI50 (BT-549 breast): 1.5 µM | TGI (BT-549 breast): 2.84 µM | GI50 (SK-MEL-28 melanoma): 1.87 µM | TGI (SK-MEL-28 melanoma): 3.27 µM | GI50 (OVCAR-8 ovarian): 1.07 µM | TGI (OVCAR-8 ovarian): 2.26 µM | GI50 (DU-145 prostate): 1.72 µM | TGI (DU-145 prostate): 3.53 µM | GI50 (HCT-15 colon): 1.06 µM | TGI (HCT-15 colon): 2.3 µM | GI50 (SN12C renal): 1.41 µM | TGI (SN12C renal): 2.86 µM | GI50 (PC-3 prostate): 1.78 µM | TGI (PC-3 prostate): 3.38 µM | GI50 (HOP-92 NSCLC): 0.52 µM | TGI (HOP-92 NSCLC): 1.82 µM | GI50 (IGROV1 ovarian): 1.89 µM | TGI (IGROV1 ovarian): 3.72 µM | GI50 (SNB-75 CNS): 1.33 µM | TGI (SNB-75 CNS): 2.61 µM
